The results in this text go back to ChEMBL document CHEMBL3507680, “University of Dundee, Gates Library screen for HepG2 cell viability”.

The data set is described as follows: Human HepG2 cell viability assay in 384 well format. The format is toxicity, cell-based. Set-up: dose 125 nL, time 70.5 hour; cytotoxicity at 70.5 h: concentration not given beside the values. To be noted: HepG2 cells, read-out: Inhibition.
Take `Cc1ccc(N2C[C@H]3CCN(Cc4ccncc4)C[C@H]3C2)nn1`: the cytotoxicity at 70.5 h is -9.91%.

As for `CCn1cc(S(=O)(=O)N2CCC(C)Sc3ccccc32)cn1` (centres undefined), the cytotoxicity at 70.5 h is -1.33%.

With `COc1cccc(COCC(=O)NC(C)c2nnc3n2CCC3)c1` (centres undefined), the cytotoxicity at 70.5 h was found to be 1.6%.

Turning to `Cc1nc(C(=O)N2CCN(S(=O)(=O)N(C)C)CC2)c(-c2ccccc2)s1`, the cytotoxicity at 70.5 h turned out to be 13.5%.

Consider `O=C(CCOc1ccccc1F)N1CCC(O)CC1`, for which the cytotoxicity at 70.5 h is -9.54%.

For `Oc1ccc(-c2c(-c3ccccc3)ncn2C2CCNC2)cc1` (centres undefined), the cytotoxicity at 70.5 h worked out at 6.28%.

For `CC(C)CC(Cc1cccc(Br)c1)C(=O)O` (centres undefined), the cytotoxicity at 70.5 h was 22.2%.

Consider `Nc1nccc(C2CCN(CCO)C2)n1` (centres undefined), for which the cytotoxicity at 70.5 h is -21.4%.

On to `CCC(=O)NCC(CC)Oc1cccc(F)c1` (centres undefined), for which the cytotoxicity at 70.5 h is -3.64%.

Consider `Cc1ccc(S(=O)(=O)Nc2ccc(N3CCSCC3)c(C(=O)O)c2)s1`, for which the cytotoxicity at 70.5 h is -10.2%.

On to `NCc1cnn(-c2ccccc2C(=O)N2CCCC(C(N)=O)C2)c1` (centres undefined), for which the cytotoxicity at 70.5 h was -2.72%.

As to `O=C(CCCOc1cccc(F)c1)N1CCCC(n2cncn2)C1` (centres undefined), the cytotoxicity at 70.5 h is 1.02%.

As to `Cc1cnc(NC(=O)c2cccc(CN(C)Cc3ncccc3C)c2)s1`, the cytotoxicity at 70.5 h turned out to be 8.51%.

As for `COCCOc1ccc(NC(=O)N(C(C)C)C2CC2)cn1`, the cytotoxicity at 70.5 h was -3.25%.

For the compound `COCC(=O)NCCn1nc(-c2cc(C)oc2C)ccc1=O`, the cytotoxicity at 70.5 h was -2.12%.

With `CCn1cnnc1CNC(=O)N1CCN(c2ccccc2O)CC1`, the cytotoxicity at 70.5 h is -13.9%.

Regarding `O=C(c1cc(C2CC2)on1)N1C[C@H]2CC[C@](O)(c3ccccc3F)[C@H]2C1`, the cytotoxicity at 70.5 h is -0.256%.

In the case of `Cc1nc(C)c(C(=O)N2CCCC2c2nc(O)cc(C(C)C)n2)s1` (centres undefined), the cytotoxicity at 70.5 h is -6.05%.

Take `CC(C)n1cc(S(=O)(=O)N2CCCCC2)cn1`: the cytotoxicity at 70.5 h was 9.02%.

On to `Cc1ccsc1CN(C)Cn1nccc1-c1cccnc1`, for which the cytotoxicity at 70.5 h is -2.36%.

In the case of `COCC1CN(C(=O)COc2ccccc2C)Cc2ncn(C)c21` (centres undefined), the cytotoxicity at 70.5 h is -4.45%.

For `O=C(CCn1ccc2ccccc21)N1CCN(Cc2cccnc2)CC1`, the cytotoxicity at 70.5 h is 17.7%.

In the case of `CCn1ncc2c1C(COC)N(C(=O)c1cccs1)CC2` (centres undefined), the cytotoxicity at 70.5 h came to 0.803%.

For `CC(C)c1nc(/C=C/c2cnn(-c3ccccc3)c2)ncc1C(=O)O`, the cytotoxicity at 70.5 h is -1.23%.

`CCOCCn1c(=O)[nH]c2cc(C(=O)N(C)Cc3nc(C)cs3)ccc21`: the cytotoxicity at 70.5 h is -12.4%.

For the compound `CCCn1cc(-c2cc(C(=O)N(C)C)c3ccc(OC)cc3n2)cn1`, the cytotoxicity at 70.5 h was -3.58%.

With `Cc1ccn(CCC(=O)NCCc2ccco2)n1`, the cytotoxicity at 70.5 h is -3.53%.

Consider `CCNC(=O)c1c2c(N3CCN(C)CC3)ncnc2n2ccccc12`, for which the cytotoxicity at 70.5 h amounted to 2.84%.

Regarding `CCOc1nnc(CN(C)C2CCCN(c3ccc(C)nn3)C2)s1` (centres undefined), the cytotoxicity at 70.5 h was -3.1%.

For `COc1ccc(N2CCN(Cc3noc(CC(C)C)n3)C(C)C2=O)cc1` (centres undefined), the cytotoxicity at 70.5 h is -24.6%.

Turning to `O=C(NCc1nc2ccccc2[nH]1)c1cc2n(n1)CCCO2`, the cytotoxicity at 70.5 h is -1.37%.

As for `CS(=O)(=O)c1cccc(C(N)c2ccc(Cl)cc2)c1` (centres undefined), the cytotoxicity at 70.5 h was -4.71%.

Take `CN1CCC(N(Cc2ccccc2)C(=O)c2ccn3ccnc3c2)CC1`: the cytotoxicity at 70.5 h was -2.58%.

Regarding `CCC(=O)N1CCc2[nH]cnc2C12CCN(CC1CCOC1)CC2` (centres undefined), the cytotoxicity at 70.5 h was -9.55%.

For the compound `CN1CCC(NC(=O)Nc2cnn(-c3ccccc3Cl)c2)CC1`, the cytotoxicity at 70.5 h was -5.23%.

Turning to `Cc1nc(CN2CCO[C@@H]3CN(C(=O)CC4CC4)C[C@@H]3C2)cs1`, the cytotoxicity at 70.5 h was -1.45%.

Turning to `NC(=O)CN(CC(N)=O)Cc1cccc(Oc2ccccc2)c1`, the cytotoxicity at 70.5 h came out at 7.82%.

In the case of `O=C1CN(CCCNS(=O)(=O)c2cccc(C(=O)NC3CC3)c2)CCN1`, the cytotoxicity at 70.5 h is -5.93%.

Take `Cn1ccnc1CN1CCCC1CCc1ccccc1` (centres undefined): the cytotoxicity at 70.5 h was determined as 2.44%.

With `c1nc(N2CCOC(Cn3cncn3)C2)c2sccc2n1` (centres undefined), the cytotoxicity at 70.5 h came to 29%.

As for `COCCCN1CCCN(C(C)C(=O)Nc2cccc(I)c2)CC1` (centres undefined), the cytotoxicity at 70.5 h is 21.2%.

For the compound `CN(C)Cc1ccc(NC(=O)c2nccn3ccnc23)cc1`, the cytotoxicity at 70.5 h was -4.61%.

As to `Cc1cc(CN2C[C@@H]3COC[C@]3(COCC(=O)N(C)C)C2)no1`, the cytotoxicity at 70.5 h is -4.13%.

Take `OC(CN1CCN(Cc2nc(C3CC3)no2)CC1)c1ccccc1` (centres undefined): the cytotoxicity at 70.5 h came out at 2%.

As for `CC(=O)NCc1noc2c1CN(CCN1CCCC1)CC2`, the cytotoxicity at 70.5 h is -8.27%.

Consider `CN1CCC(NN2CCN(C)CC2)CC1`, for which the cytotoxicity at 70.5 h is -17.5%.

Consider `Cc1nn(C)c(Cl)c1C1CCCN1C(=O)c1cccn1C` (centres undefined), for which the cytotoxicity at 70.5 h was -10.5%.

With `Cc1cc(C)n(C2CN(CC(O)c3ccc(F)cc3)C2)n1` (centres undefined), the cytotoxicity at 70.5 h was -10.7%.

Turning to `COc1ccc(-c2n[nH]cc2CN2CCSCC2)c(OC)c1`, the cytotoxicity at 70.5 h was -7.44%.

Consider `COc1ccc2c(c1)CN(Cc1ccco1)C(=O)CCN2CC(C)(C)O`, for which the cytotoxicity at 70.5 h is 1.21%.

For the compound `O=C1COC2(CCN(c3ncccn3)CC2)CN1Cc1ccccn1`, the cytotoxicity at 70.5 h is -5.98%.

`O=C(C1CCOC1)N1CCC2(CC1)Cc1ccccc1CNC2=O` (centres undefined): the cytotoxicity at 70.5 h was -9.03%.

For `O=C(O)c1ccccc1-c1c(-c2ccccc2)ncn1CC1CCCO1` (centres undefined), the cytotoxicity at 70.5 h is 17.5%.

On to `Cc1nccc(N[C@H]2CN(CCS(C)(=O)=O)C[C@@H]2C2CC2)n1`, for which the cytotoxicity at 70.5 h came out at 18.1%.

As for `Cc1nc(C)n(C2CCCN(C(=O)c3ccc4c(c3)COC4)C2)n1` (centres undefined), the cytotoxicity at 70.5 h came out at 0.389%.

Take `CC(=O)c1cc(CN2C[C@H]3CC[C@@H]2CN(Cc2c(C)noc2C)C3)cs1`: the cytotoxicity at 70.5 h was -8.51%.

Take `CCc1nc(NS(=O)(=O)c2cc(C)c(F)cc2Cl)no1`: the cytotoxicity at 70.5 h worked out at 25.9%.

For the compound `O=C(Cc1ccccc1)N1CC(=O)N(Cc2ccco2)CC(O)C1` (centres undefined), the cytotoxicity at 70.5 h turned out to be 0.111%.

As for `COc1ccc(-c2ccccc2CCN)c(OC)c1`, the cytotoxicity at 70.5 h was -10.1%.

Take `Cc1c[nH]nc1C1CCCN(C(=O)Cn2cccn2)C1` (centres undefined): the cytotoxicity at 70.5 h was -5.23%.

As for `Cc1ccc(-c2nnc(CNCCn3cc(C)cn3)o2)cc1`, the cytotoxicity at 70.5 h is -18.3%.

For the compound `COc1ccc(C2CN(c3ncccn3)CCN2C(C)=O)cc1` (centres undefined), the cytotoxicity at 70.5 h is -5.51%.

With `Cn1cc(CN2CCC[C@]3(C[C@H](Oc4ccccn4)CO3)C2)cn1`, the cytotoxicity at 70.5 h was -7.75%.

As for `Cc1nn(C)c(N2CCOCC2)c1CNC1COc2ccccc2C1` (centres undefined), the cytotoxicity at 70.5 h amounted to 27.5%.

`Cc1cc(C2CCCN(C(=O)c3cnn(C)c3)C2)ccn1` (centres undefined): the cytotoxicity at 70.5 h was -8.77%.

Turning to `CNc1cccc(C2CCCN(C(=O)c3ccn(C)n3)C2)n1` (centres undefined), the cytotoxicity at 70.5 h was 16.5%.

Regarding `CC(C)c1noc(C2CCCN2C(=O)CN2CCc3ccccc32)n1` (centres undefined), the cytotoxicity at 70.5 h stood at 23.7%.

For `OC1(CN2CCCC(Cn3cncn3)C2)CCCCC1` (centres undefined), the cytotoxicity at 70.5 h amounted to 6.45%.

`Cn1cc(C(=O)OCC(N)=O)c(-c2ccc(F)cc2F)n1`: the cytotoxicity at 70.5 h was -7.24%.

Take `O=S(=O)(CCCn1cncn1)Cc1ccc(F)cc1Cl`: the cytotoxicity at 70.5 h was -8.31%.

In the case of `c1ccc(CN2CC[C@@H]3O[C@@H](COCC4CCOCC4)CC[C@@H]32)nc1`, the cytotoxicity at 70.5 h is -14.4%.

Regarding `CC(C)c1noc(CCC(=O)N(CC2CCOC2)C2CC2)n1` (centres undefined), the cytotoxicity at 70.5 h is -8.06%.

Regarding `COCCN1CC(c2nc(CC3CCN(C)CC3)no2)CCC1=O` (centres undefined), the cytotoxicity at 70.5 h was -11.5%.

As for `CC[C@H]1N(Cc2ccco2)CCC[C@]12CCC(=O)N2C`, the cytotoxicity at 70.5 h is -15.5%.

As to `COc1ccc(-c2nc(CN3CCc4c(ncn4C)C3)cs2)cc1`, the cytotoxicity at 70.5 h is 21.3%.

Take `O=C([C@@H]1CCO[C@@H]2CCN(CC3CC3)C[C@H]21)N1CCCC1`: the cytotoxicity at 70.5 h was -2.49%.

For the compound `O=C([C@H]1COC[C@H]2CN(c3ncc(F)cn3)C[C@H]21)N1CCOCC1`, the cytotoxicity at 70.5 h is -7.81%.

With `CCN(Cc1noc(C(C)(C)C)n1)Cc1ccc(C#N)cc1F`, the cytotoxicity at 70.5 h was -6.26%.

In the case of `Cc1cccc(CN2CCN(c3ncnc4[nH]ccc34)CC2CCO)n1` (centres undefined), the cytotoxicity at 70.5 h is -3.92%.

On to `CN(Cc1ccccc1)C(=O)CSc1ccc2c(c1)OCCO2`, for which the cytotoxicity at 70.5 h came to 2.14%.

Turning to `CCN1CCOC(CNCc2ccc(OCc3ccccn3)cc2)C1` (centres undefined), the cytotoxicity at 70.5 h is -6.17%.

With `Cn1ccnc1SCCNc1cc(N2CCOCC2)ncn1`, the cytotoxicity at 70.5 h was -19.6%.

Turning to `CCC[C@H]1CN(S(=O)(=O)c2cc(C)ccc2F)C[C@@H]1N`, the cytotoxicity at 70.5 h is -0.888%.

Turning to `CC(C)c1nn(C)c(N(C)C)c1CNCc1cccc2cccnc12`, the cytotoxicity at 70.5 h amounted to 5.24%.

On to `Cn1ccnc(Sc2ccccc2)c1=O`, for which the cytotoxicity at 70.5 h was -9.9%.

On to `CCC(CN1CCCCC1)NC(=O)C1(c2cccc(F)c2)CC1` (centres undefined), for which the cytotoxicity at 70.5 h is -8.99%.

`CC(C)NC(=O)c1nnn(-c2cccc(C(F)(F)F)c2)c1N`: the cytotoxicity at 70.5 h is -4.84%.

As for `CNC(=O)c1cn[nH]c1C1(C)CCCN(Cc2nccn2C(C)C)C1` (centres undefined), the cytotoxicity at 70.5 h is -2.7%.

For the compound `O=C(c1ccc2c(c1)OCO2)N1CCCC(Nc2ccc(F)cc2)C1` (centres undefined), the cytotoxicity at 70.5 h is -2.98%.

With `Cc1ccc(NC(=O)NC(C)c2nc[nH]n2)cc1Cl` (centres undefined), the cytotoxicity at 70.5 h was -3.17%.

Take `CC(C)N1CCC(CC(=O)N2CCN(Cc3nccn3C)CC2)CC1`: the cytotoxicity at 70.5 h was -6.78%.

Turning to `CCOc1ccc(NC(C)=O)cc1S(=O)(=O)Nc1nnc(C)s1`, the cytotoxicity at 70.5 h is -10.8%.

For `OCC(CO)N1CCCC(Cc2ccnc(Nc3ccccn3)c2)C1` (centres undefined), the cytotoxicity at 70.5 h was -14.9%.

On to `O=C1NC(c2ccccc2)=N[C@@]12CC[C@@H]1CN(Cc3cccnc3)C[C@@H]12`, for which the cytotoxicity at 70.5 h was -0.723%.

Regarding `CCN1CCC(c2nnc(CN3CCCC3)n2C2CC2)CC1`, the cytotoxicity at 70.5 h is -9.82%.

Consider `CSCC[C@H](N)C(=O)NCc1cc2n(n1)CCCN(C(=O)N(C)C)C2`, for which the cytotoxicity at 70.5 h was -8.91%.

For `Cc1cc(C)nc(N2CCN(Cc3nccn3C)CC2)n1`, the cytotoxicity at 70.5 h is -2.76%.

Turning to `O=C(CCOCc1ccccc1)N1CCCC1c1noc(C2CC2)n1` (centres undefined), the cytotoxicity at 70.5 h was -2.09%.

For `Cc1ccsc1CN(CCCN(C)C)Cc1ccccn1`, the cytotoxicity at 70.5 h is -3.09%.
